Data on 9 compounds can be found in US20180057467A1, “NOVEL TRIAZOLE DERIVATIVES” (BAYER CROPSCIENCE AKTIENGESELLSCHAFT, priority 2015, published 2018).

In one data set the test system is Phakopsora pachyrhizi. Nature of the data set: Example U: in vivo preventive test on Phakopsora test (soybeans), comparison vs. known compounds. The conditions noted are these: rate of application 5 ppm, evaluated 7 days after inoculation. As to the method: Example U: In Vivo Preventive Test on Phakopsora Test (Soybeans); Comparison of Compounds According to the Invention Vs. Known Compounds
After the spray coating has dried on, the plants are inoculated with an aqueous spore suspension of the causal agent of soybean rust (Phakopsora pachyrhizi) and stay for 24 h without light in an incubation cabinet at approximately 24° C. and a relative atmospheric humidity of 95%.
The plants remain in the incubation cabinet at approximately 24° C. and a relative atmospheric humidity of approximately 80% and a day/night interval of 12 h.
The test is evaluated 7 days after the inoculation.

In a further data set the test system is Venturia inaequalis. The data set can be described thus: Example T: in vivo preventive test on Venturia test (apples), comparison vs. known compounds. To be noted: rate of application 10 ppm, evaluated 10 days after inoculation. As to the method: Example T: In Vivo Preventive Test on Venturia Test (Apples) Comparison of Compounds According to the Invention Vs. Known Compounds
The plants are then placed in a greenhouse at approximately 21° C. and a relative atmospheric humidity of approximately 90%.
The test is evaluated 10 days after the inoculation.

The nature of data set [1]: LogP by HPLC on reversed phase columns (EEC directive 79/831 Annex V.A8). In kind it is physicochemical. To be noted: for LogP: method [a]: LC-UV, acidic range, 0.1% formic acid in water and acetonitrile as eluent. The protocol: [table] If more than one Log P value is available within the same method, all the values are given and separated by “+”. […] Lambda-max-values were determined using UV-spectra from 200 nm to 400 nm and the peak values of the chromatographic signals.

In the case of `OC(Cn1cncn1)(c1ccc(F)cc1F)C1(Oc2c(F)cc(Br)cc2F)CC1` (racemic) [Example I-03], the figures for the Efficacy in % in the data set on Phakopsora pachyrhizi and in the data set on Venturia inaequalis were 89% and 93%, respectively. In addition, in data set [1], the chromatographic logP amounted to 3.7.

With `OC(Cn1cncn1)(c1ccc(F)cc1F)C1(Oc2ccccc2)CC1` (stereo not drawn) [DE-A 3522440 Ex. I-134, reference compound], the Efficacy in % with Phakopsora pachyrhizi turned out to be 0%; in the data set with Venturia inaequalis it was 76%.

In the case of `OC(Cn1cncn1)(c1ccc(F)cc1)C1(Oc2ccc(Cl)cc2Cl)CC1` (stereo not drawn) [DE-A 3522440 Ex. I-44, reference compound], the Efficacy in % in the data set on Phakopsora pachyrhizi was 15%; with Venturia inaequalis, 0%. With `OC(Cn1cncn1)(c1ccc(F)cc1F)C1(Oc2c(F)cc(Cl)cc2F)CC1` (racemic) [Example I-01], the Efficacy in % in the data set with Phakopsora pachyrhizi came to 95%; with Venturia inaequalis, 98%. Moreover, the chromatographic logP in data set [1] worked out at 3.57.

Regarding `Fc1ccc(C2(C3(Oc4c(Cl)cc(C(F)(F)F)cc4Cl)CC3)CO2)c(F)c1` (racemic) [Example V-11], the LogP in data set [1] is 5.51^[a].

As to `COC(Cn1cncn1)(c1ccc(F)cc1F)C1(Oc2c(Cl)ccc(Cl)c2Cl)CC1` (racemic) [Example I-15], in data set [1], the LogP was 4.46^[a]. With `Fc1ccc(C2(C3(Oc4c(F)cc(Cl)cc4F)CC3)CO2)c(F)c1` (racemic) [Example V-02], the LogP in data set [1] was 4.59^[a].

As for `O=C(c1ccc(F)cc1F)C1(Oc2c(Cl)ccc(Cl)c2Cl)CC1` [IV-8], in data set [1], the LogP is 5.03^[a]. As for `COC(Cn1cncn1)(c1ccc(Cl)cc1F)C1(Oc2c(F)cc(Cl)cc2F)CC1` (racemic) [Example I-25], in data set [1], the LogP is 4.41^[a].

What is called chromatographic logP is lipophilicity estimated from chromatographic retention. A higher chromatographic logP goes with a more lipophilic compound.
